Source: publication PMC6155600, “Design, Synthesis and Cellular Characterization of a Dual Inhibitor of 5-Lipoxygenase and Soluble Epoxide Hydrolase” (Molecules : A Journal of Synthetic Chemistry and Natural …, 2016)

Legend:
5-lipoxygenase (5-LO) = molecular target: T1, 5-lipoxygenase (5-LO) (Homo sapiens, UniProt P09917); experiment: purified recombinant 5-LO activity assay, arachidonic acid substrate, HPLC product analysis; format: biochemical
T1 construct: gene ALOX5
T1 sequence (P09917 1-674): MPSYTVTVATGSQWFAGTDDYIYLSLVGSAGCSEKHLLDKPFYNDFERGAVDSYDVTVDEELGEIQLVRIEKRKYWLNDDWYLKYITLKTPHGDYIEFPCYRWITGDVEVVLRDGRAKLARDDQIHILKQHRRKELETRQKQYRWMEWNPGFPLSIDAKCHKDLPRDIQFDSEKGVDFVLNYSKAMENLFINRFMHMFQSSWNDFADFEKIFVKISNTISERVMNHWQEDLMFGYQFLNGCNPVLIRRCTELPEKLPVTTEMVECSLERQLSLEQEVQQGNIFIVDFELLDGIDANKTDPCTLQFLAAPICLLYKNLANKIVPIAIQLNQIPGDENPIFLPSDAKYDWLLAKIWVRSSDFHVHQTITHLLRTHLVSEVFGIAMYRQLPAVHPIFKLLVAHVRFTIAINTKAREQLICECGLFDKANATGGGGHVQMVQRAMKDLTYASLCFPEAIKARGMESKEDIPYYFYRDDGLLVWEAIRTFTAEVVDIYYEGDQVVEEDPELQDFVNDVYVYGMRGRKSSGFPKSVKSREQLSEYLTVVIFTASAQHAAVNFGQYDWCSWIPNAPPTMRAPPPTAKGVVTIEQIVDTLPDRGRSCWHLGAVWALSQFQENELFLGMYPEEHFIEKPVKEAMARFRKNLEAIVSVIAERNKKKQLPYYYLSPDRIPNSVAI

[1] = molecular target: T2, soluble epoxide hydrolase (sEH) (Homo sapiens, UniProt P34913); experiment: fluorescence-based enzyme activity assay with recombinant human sEH (PHOME substrate); format: biochemical
T2 construct: gene EPHX2
T2 sequence (P34913 1-555): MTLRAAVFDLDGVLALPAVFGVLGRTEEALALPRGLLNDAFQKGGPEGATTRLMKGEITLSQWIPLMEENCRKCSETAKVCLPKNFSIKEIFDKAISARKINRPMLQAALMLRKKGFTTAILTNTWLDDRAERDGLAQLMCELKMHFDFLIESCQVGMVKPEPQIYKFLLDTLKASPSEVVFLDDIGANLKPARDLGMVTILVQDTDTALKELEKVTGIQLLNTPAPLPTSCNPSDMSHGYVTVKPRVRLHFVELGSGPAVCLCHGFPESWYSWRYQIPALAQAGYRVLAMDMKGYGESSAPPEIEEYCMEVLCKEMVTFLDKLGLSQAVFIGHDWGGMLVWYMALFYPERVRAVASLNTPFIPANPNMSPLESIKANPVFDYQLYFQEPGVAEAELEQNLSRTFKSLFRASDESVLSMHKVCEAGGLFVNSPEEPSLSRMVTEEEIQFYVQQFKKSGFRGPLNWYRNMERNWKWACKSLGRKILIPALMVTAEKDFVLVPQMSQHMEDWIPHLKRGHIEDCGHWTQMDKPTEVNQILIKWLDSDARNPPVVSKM

IC50 (5-lipoxygenase (5-LO)): 1300 nM
IC50 [1]: 29 nM
SMILES: COc1ccc(CN(O)C(N)=O)cc1OCCCNC(=O)Nc1ccc(OC(F)(F)F)cc1 [compound 5, 1-(3-{5-(Hydroxyureido)methyl-2-methoxyphenoxy}propyl)-3-[4-(trifluoromethoxy)phenyl]urea]
